From ChEMBL document CHEMBL3232804, “Synthesis and evaluation of new diaryl ether and quinoline hybrids as potential antiplasmodial and antimicrobial agents” (Bioorg Med Chem Lett, 2014)
≈ marks a conversion by molar mass, not a printed value.

Experiments:
Plasmodium falciparum [1] = assay: Antiplasmodial activity against chloroquine-resistant Plasmodium falciparum K1 infected after 72 hrs by Malaria SYBR Green I-staining based fluorescence assay; type: functional, organism-based; settings: K1, 72 h
Escherichia coli = assay: Antimicrobial activity against Escherichia coli ATCC 9637 after 24 hrs by standard broth microdilution method; type: functional; settings: ATCC 9637, 24 h
Klebsiella pneumoniae = assay: Antimicrobial activity against Klebsiella pneumoniae ATCC 27736 after 24 hrs by standard broth microdilution method; type: functional; settings: ATCC 27736, 24 h
Aspergillus fumigatus = assay: Antifungal activity against Aspergillus fumigatus clinical isolate after 72 to 96 hrs by standard broth microdilution method; type: functional
Candida albicans = assay: Antifungal activity against Candida albicans clinical isolate after 24 to 48 hrs by standard broth microdilution method; type: functional
Pseudomonas aeruginosa = assay: Antimicrobial activity against Pseudomonas aeruginosa ATCC BAA-427 after 24 hrs by standard broth microdilution method; type: functional; settings: ATCC BAA-427, 24 h
Candida parapsilosis = assay: Antifungal activity against Candida parapsilosis ATCC […] after 72 to 96 hrs by standard broth microdilution method; type: functional; settings: Lodderomyces parapsilosis
[2] = test system: Trichophyton mentagrophytes; assay: Antifungal activity against Trichophyton mentagrophytes clinical isolate after 72 to 96 hrs by standard broth microdilution method; type: functional
Staphylococcus aureus = assay: Antimicrobial activity against Staphylococcus aureus ATCC 25923 after 24 hrs by standard broth microdilution method; type: functional; settings: ATCC 25923, 24 h
[3] = Selectivity index, ratio of IC50 for african green monkey Vero cells to IC50 for chloroquine-sensitive Plasmodium falciparum 3D7; type: toxicity, cell-based; settings: read-out: Ratio IC50
Sporothrix schenckii = assay: Antifungal activity against Sporothrix schenckii clinical isolate after 72 to 96 hrs by standard broth microdilution method; type: functional
Plasmodium falciparum [4] = assay: Antiplasmodial activity against chloroquine-sensitive Plasmodium falciparum 3D7 infected after 72 hrs by Malaria SYBR Green I-staining based fluorescence assay; type: functional, organism-based; settings: 3D7, 72 h
Cryptococcus neoformans = assay: Antifungal activity against Cryptococcus neoformans clinical isolate after 24 to 48 hrs by standard broth microdilution method; type: functional

SMILES | IC50 (Plasmodium falciparum [1]) [nM] | MIC (Escherichia coli) [µg/mL] | MIC (Klebsiella pneumoniae) [µg/mL] | MIC (Aspergillus fumigatus) [µg/mL] | MIC (Candida albicans) [µg/mL] | MIC (Pseudomonas aeruginosa) [µg/mL] | MIC (Candida parapsilosis) [µg/mL] | MIC [2] [µg/mL] | MIC (Staphylococcus aureus) [µg/mL] | selectivity ratio [3] | MIC (Sporothrix schenckii) [µg/mL] | IC50 (Plasmodium falciparum [4]) [nM] | MIC (Cryptococcus neoformans) [µg/mL]
COC(=O)/C(C)=C/c1ccc(Oc2ccccc2N/C(=N/c2cccc(Cl)c2)NCCNc2ccnc3cc(Cl)ccc23)cc1 | 489 | 50 (≈ 78.1 µM) | 3.12 (≈ 4.87 µM) | 50 (≈ 78.1 µM) | 25 (≈ 39 µM) | > 50 | 25 (≈ 39 µM) | 25 (≈ 39 µM) | 3.12 (≈ 4.87 µM) | 234 | 25 (≈ 39 µM) | 34.9 | 25 (≈ 39 µM)
COC(=O)/C(C)=C/c1ccc(Oc2ccccc2N/C(=N/c2ccc(Cl)cc2)NCCNc2ccnc3cc(Cl)ccc23)cc1 | 419 | 50 (≈ 78.1 µM) | > 50 | > 50 | 50 (≈ 78.1 µM) | > 50 | > 50 | 50 (≈ 78.1 µM) | 1.56 (≈ 2.44 µM) | 46.2 | 50 (≈ 78.1 µM) | 51.5 | 50 (≈ 78.1 µM)
COC(=O)/C(C)=C/c1ccc(Oc2ccccc2N/C(=N/c2ccc(Cl)cc2)NCCCNc2ccnc3cc(Cl)ccc23)cc1 | 263 | 12.5 (≈ 19.1 µM) | > 50 | > 50 | 50 (≈ 76.4 µM) | > 50 | > 50 | 25 (≈ 38.2 µM) | 1.56 (≈ 2.38 µM) | 32.7 | 25 (≈ 38.2 µM) | 74.5 | 50 (≈ 76.4 µM)
Clc1cccc(/N=C(\NCCCNc2ccnc3cc(Cl)ccc23)Nc2ccc(Oc3cc(Cl)ccc3Cl)cc2)c1 | > 800 | 6.25 (≈ 9.99 µM) | > 50 | 12.5 (≈ 20 µM) | 3.12 (≈ 4.99 µM) | > 50 | 25 (≈ 40 µM) | 6.25 (≈ 9.99 µM) | 12.5 (≈ 20 µM) | 44.5 | 3.12 (≈ 4.99 µM) | 76.2 | 6.25 (≈ 9.99 µM)
COC(=O)/C(C)=C/c1ccc(Oc2ccccc2N/C(=N/c2cccc(Cl)c2)NCCCNc2ccnc3cc(Cl)ccc23)cc1 | 292 | 6.25 (≈ 9.55 µM) | 3.12 (≈ 4.77 µM) | > 50 | 50 (≈ 76.4 µM) | > 50 | > 50 | 50 (≈ 76.4 µM) | 3.12 (≈ 4.77 µM) | 368 | 50 (≈ 76.4 µM) | 20.3 | > 50
Clc1ccc(Cl)c(Oc2ccccc2N/C(=N/c2ccccc2)NCCCCNc2ccnc3cc(Cl)ccc23)c1 | 94 | 25 (≈ 41.3 µM) | > 50 | > 50 | 50 (≈ 82.6 µM) | > 50 | > 50 | 50 (≈ 82.6 µM) | 12.5 (≈ 20.7 µM) | 43.5 | 25 (≈ 41.3 µM) | 194 | > 50
COC(=O)/C(C)=C/c1ccc(Oc2ccc(N/C(=N/c3cccc(Cl)c3)NCCNc3ccnc4cc(Cl)ccc34)cc2)cc1 | 123 | 12.5 (≈ 19.5 µM) | 12.5 (≈ 19.5 µM) | > 50 | 50 (≈ 78.1 µM) | 50 (≈ 78.1 µM) | 50 (≈ 78.1 µM) | 25 (≈ 39 µM) | 6.25 (≈ 9.76 µM) | 71.7 | 25 (≈ 39 µM) | 48.9 | 50 (≈ 78.1 µM)
COc1ccc(Oc2ccccc2N/C(=N/c2cccc(Cl)c2)NCCNc2ccnc3cc(Cl)ccc23)cc1 | 201 | 6.25 (≈ 10.9 µM) | 12.5 (≈ 21.8 µM) | 12.5 (≈ 21.8 µM) | 6.25 (≈ 10.9 µM) | > 50 | > 50 | 12.5 (≈ 21.8 µM) | 6.25 (≈ 10.9 µM) | 208 | > 50 | 43.4 | 12.5 (≈ 21.8 µM)
Clc1ccc(/N=C(\NCCCCNc2ccnc3cc(Cl)ccc23)Nc2ccccc2Oc2cc(Cl)ccc2Cl)cc1 | 151 | > 50 | > 50 | > 50 | > 50 | > 50 | > 50 | > 50 | > 50 | 11 | > 50 | 654 | > 50
Clc1cccc(/N=C(\NCCNc2ccnc3cc(Cl)ccc23)Nc2ccccc2Oc2cc(Cl)ccc2Cl)c1 | 422 | 6.25 (≈ 10.2 µM) | > 50 | > 50 | 50 (≈ 81.8 µM) | > 50 | 50 (≈ 81.8 µM) | 50 (≈ 81.8 µM) | 1.56 (≈ 2.55 µM) | 56.2 | 50 (≈ 81.8 µM) | 69.6 | > 50
Clc1cccc(/N=C(\NCCCCNc2ccnc3cc(Cl)ccc23)Nc2ccc(Oc3cc(Cl)ccc3Cl)cc2)c1 | > 782 | 6.25 (≈ 9.77 µM) | 50 (≈ 78.2 µM) | 25 (≈ 39.1 µM) | 3.12 (≈ 4.88 µM) | > 50 | 6.25 (≈ 9.77 µM) | 6.25 (≈ 9.77 µM) | 6.25 (≈ 9.77 µM) | 26.3 | 3.12 (≈ 4.88 µM) | 126 | 12.5 (≈ 19.5 µM)
COC(=O)/C(C)=C/c1ccc(Oc2ccccc2N/C(=N/c2ccccc2)NCCCNc2ccnc3cc(Cl)ccc23)cc1 | 161 | > 50 | > 50 | > 50 | > 50 | > 50 | > 50 | > 50 | > 50 | 37.2 | > 50 | 174 | > 50
Clc1ccc(Cl)c(Oc2ccccc2N/C(=N/c2ccccc2)NCCNc2ccnc3cc(Cl)ccc23)c1 | 95.8 | 25 (≈ 43.3 µM) | 50 (≈ 86.7 µM) | > 50 | 50 (≈ 86.7 µM) | > 50 | 50 (≈ 86.7 µM) | 25 (≈ 43.3 µM) | 12.5 (≈ 21.7 µM) | 173 | 50 (≈ 86.7 µM) | 42.5 | > 50
COc1ccc(Oc2ccc(N/C(=N/c3ccc(Cl)cc3)NCCCCNc3ccnc4cc(Cl)ccc34)cc2)cc1 | 138 | 6.25 (≈ 10.4 µM) | 25 (≈ 41.6 µM) | 25 (≈ 41.6 µM) | 25 (≈ 41.6 µM) | > 50 | 6.25 (≈ 10.4 µM) | 12.5 (≈ 20.8 µM) | 6.25 (≈ 10.4 µM) | 88.7 | 12.5 (≈ 20.8 µM) | 33.7 | 25 (≈ 41.6 µM)
COc1ccc(Oc2ccccc2N/C(=N/c2ccc(Cl)cc2)NCCCNc2ccnc3cc(Cl)ccc23)cc1 | > 800 | > 50 | 50 (≈ 85.2 µM) |  | > 50 | 50 (≈ 85.2 µM) |  |  | > 50 | 123 | 25 (≈ 42.6 µM) | 241 | 50 (≈ 85.2 µM)
